From patent US20240197610A1, “CERAMIDE GROWTH PROMOTING AGENT” (TAKASAGO INTERNATIONAL CORPORATION, priority 2020, published 2024)

Tested on: late differentiated cultured human keratinocytes (LDKs)
Experiment: Ceramide growth test in cultured human keratinocytes (LC-ESI-MS/MS quantification of ceramide species)
Assay type: cell-based
Experimental: Experiments were conducted using undifferentiated and late differentiated cultured human keratinocytes (KCs). Human keratinocytes were cultured in a serum-free KC growth medium containing 0.07 mM calcium, and collected to be undifferentiated cells when KCs occupied up to about 60% to 70% of the total area of the culture petri dish (about 60% to 70% confluence). KCs were cultured in a serum-free KC growth medium containing 0.07 mM of calcium, and the medium was replaced with DMEM containing 10% fetal bovine serum containing 1.2 mM of calcium, 10 μg/mL insulin, 0.4 μg/mL hydrocortisone, and 50 μg/mL of vitamin C and Ham's F-12 (2:1, v/v) when KCs occupied up to about 70% to 80% of the total area of the culture petri dish (about 70% to 80% confluence), followed by culturing for 8 days. Next, cells cultured for 3 days in a DMEM medium containing 10% fetal bovine serum containing 1.2 mM of calcium, 10 μg/mL insulin, 0.4 μg/mL hydrocortisone, and 50 μg/mL of vitamin C were used as late differentiated cultured human keratinocytes (LDKs).
From the second day of culture to the fourth, sixth, eighth, ninth, and tenth days, the ceramide preparation (I % ceramide NDS solution) prepared in Example 1 was diluted with a medium, filtered with a filter paper having a pore size of 0.45 μm, and 15.9 μL, 79.6 μL, and 397.7 μL (=10 μM, 50 μM, 250 μM) thereof were added, separately. In addition, 79.6 μL of a Blk solution not containing ceramide prepared in Comparative Example 1 was added, followed by culturing.
100 μg of each of the culture solutions prepared above and 100 μmol of an internal standard substance mixture (C17 (carbon number 17)-ceramide NS=N-octadecanoylamino-C17 sphingosine, C17-sphingosine, C17-dihydrosphingosine) were added to a mixed solution of a 0.1 N HCl aqueous solution: chloroform: methanol (volume ratio 1:2:1) and stirred, and then the organic phase of the lower layer was dried in vacuo, and the extraction drying operation was repeated twice. The obtained residue was dissolved in 200 μl of a methanol/acetonitrile equivalent mixture, and analyzed by the following liquid chromatography tandem mass spectrometry (LC-ESI-MS/MS) system (API 3200 QTRAP mass, ABCIEX). […]
10 μL of the extracted sample was analyzed by HPLC (HTS HPLC system manufactured by Shiseido Co., Ltd.) with a reverse phase KINTEX C18 column (2.1×50 mm, ID=2.6 μm). The column was previously equilibrated with a solvent A (MeOH: 0.05% formic acid aqueous solution: 80:20), the lipid was dissolved in a solvent B(2-propanol:0.05% formic acid methanol solution: 99:1), and a mass spectrum was detected in a positive mode by electrospray ionization with a gradient applied at a flow rate of 0.3 ml/min. […]

CCCCCCCCCCCCCCCCCC(=O)N[C@@H](CO)[C@H](O)CCCCCCCCCCCCCCC [ceramide NDS, (2S,3R)-2-octadecanoylaminooctadecane-1,3-diol]
ceramide NSs (acyl chain length 14 to 26) amount (Example 1 preparation added at 10 μM, 50 μM, 250 μM, 10 days culture, p<0.01 vs LDK without ceramide NDS, FIG. 4): significantly increased
ceramide NDSs (different acyl chain lengths of 14 to 26) amount (Example 1 preparation added at 10 μM, 50 μM, 250 μM, 10 days culture, p<0.01 vs LDK without ceramide NDS, FIG. 5): significantly increased
ceramide EOSs (ω-hydroxy acid amide bond of 30 and 32 carbon atoms, esterified with linoleic acid at ω-position) amount (Example 1 preparation added at 10 μM, 50 μM, 250 μM, 10 days culture, p<0.01 vs LDKs without ceramide NDS, FIG. 3): significantly increased
growth of various ceramide species (ceramide preparation added to keratinocyte culture): are grown
